The pEC50 is the negative decadic logarithm of the EC50, by convention in mol/L. The term pIC50 denotes the IC50 on a negative log10 scale, so that one unit is a factor of ten.

pEC50, pIC50: −log10 of the molar value.

The subject of the first assay is T47D cells expressing mutant PI3Ka (H1047R). Briefly: In vitro cell proliferation, T47D cells (CellTiter-Glo). Type of assay: cell-based. The conditions noted are these: Homo sapiens, T47D, 72 h, inhibition of proliferation, read-out: Avg T-47D EC50. The method, boiled down: (§1)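 EC50 values derive from a four-parameter logistic fit of luminescence-based (CellTiter-Glo) inhibition, referenced to 0.1% DMSO and 10 uM Alpelisib controls. Compound exposure lasted 72 h at 37 °C.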
A general note: ATP-based viability assays read luminescence as a measure of living cells.
Take `C[C@@H](Nc1ccccc1C(=O)O)c1cc(F)cc2c(=O)n(C)c(-c3cnc(CF)s3)cc12` [Example 545]: the pEC50 was 6.30 to 9.00.

On to `C[C@@H](Nc1ccccc1C(=O)O)c1cc(F)cc2c(=O)n(C)c(-c3ccc(OCC(F)(F)F)nc3)c(F)c12` [Example 547], for which the pEC50 was 5.70 to 6.30.

As to `Cc1cc([C@@H](C)Nc2ccccc2C(=O)O)c2cc(N3CCN(c4ccc(C)nn4)CC3)n(C)c(=O)c2c1` [Example 551], the pEC50 is 6.30 to 9.00.

`C[C@@H](Nc1ccccc1C(=O)O)c1cc(F)cc2c(=O)n(C)c(Br)cc12` [Example 555]: the negative-log EC50 (pEC50) was 4.82 to 5.70.

Regarding `C[C@@H](Nc1ccccc1C(=O)O)c1cc(F)cc2c(=O)n(C)c(I)cc12` [Example 559], the pEC50 was 5.70 to 6.30.

Consider `Cc1ncc(F)cc1-c1ncc(-c2c(F)c3c([C@@H](C)Nc4ccccc4C(=O)O)cc(F)cc3c(=O)n2C)cc1F` [Example 562], for which the pEC50 is 6.30 to 9.00.

Regarding `C[C@@H](Nc1ccccc1C(=O)O)c1cc(F)cc2c(=O)n(C)c(-c3cnc(OCC(F)(F)F)s3)cc12` [Example 568], the pEC50 was 6.30 to 9.00.

With `C[C@@H](Nc1ccccc1C(=O)O)c1cc(F)cc2c(=O)n(C)c(-c3cnc(OCC(F)(F)F)c(F)c3)c(F)c12` [Example 569], the pEC50 was 5.70 to 6.30.

Regarding `C[C@@H](Nc1ccccc1C(=O)O)c1cc(F)cc2c(=O)n(C)c(C34CC(CC(F)(F)F)(C3)C4)cc12` [Example 570], the pEC50 was 6.30 to 9.00.

In the case of `C[C@@H](Nc1ccccc1C(=O)O)c1cc(F)cc2c(=O)n(C)c(C34CC(C(F)(F)C(F)(F)F)(C3)C4)cc12` [Example 571], the pEC50 was 6.30 to 9.00.

As to `C[C@@H](Nc1ccccc1C(=O)O)c1cc(F)cc2c(=O)n(C)c(-c3cnc(-c4cnc(C(F)(F)F)nc4)c(F)c3)cc12` [Example 574], the pEC50 is 6.30 to 9.00.

As for `C[C@@H](Nc1ccccc1C(=O)O)c1cc(F)cc2c(=O)n(C)c(-c3cnc(-c4ccnc(C(F)(F)F)n4)c(F)c3)cc12` [Example 575], the pEC50 is 4.82 to 5.70.

Another assay relates to SKBR3 cells express WT PI3Ka. Briefly: In vitro cell proliferation, SKBR3 cells (CellTiter-Glo). It counts as cell-based. Conditions: Homo sapiens, SK-BR-3, 72 h, inhibition of proliferation. Summed up: as §1
Compound `C[C@@H](Nc1ccccc1C(=O)O)c1cc(F)cc2c(=O)n(C)c(-c3cnc(CF)s3)cc12` [Example 545] gave a negative logarithm of the EC50 (pEC50) of less than 4.82.

For the compound `C[C@@H](Nc1ccccc1C(=O)O)c1cc(F)cc2c(=O)n(C)c(-c3ccc(OCC(F)(F)F)nc3)c(F)c12` [Example 547], the pEC50 is less than 4.82.

On to `Cc1cc([C@@H](C)Nc2ccccc2C(=O)O)c2cc(N3CCN(c4ccc(C)nn4)CC3)n(C)c(=O)c2c1` [Example 551], for which the pEC50 is 4.82 to 5.70.

With `C[C@@H](Nc1ccccc1C(=O)O)c1cc(F)cc2c(=O)n(C)c(Br)cc12` [Example 555], the pEC50 was less than 4.82.

In turn, `C[C@@H](Nc1ccccc1C(=O)O)c1cc(F)cc2c(=O)n(C)c(I)cc12` [Example 559] showed a pEC50 of less than 4.82.

Turning to `Cc1ncc(F)cc1-c1ncc(-c2c(F)c3c([C@@H](C)Nc4ccccc4C(=O)O)cc(F)cc3c(=O)n2C)cc1F` [Example 562], the pEC50 was less than 4.82.

The compound `C[C@@H](Nc1ccccc1C(=O)O)c1cc(F)cc2c(=O)n(C)c(-c3cnc(OCC(F)(F)F)s3)cc12` [Example 568] gave a pEC50 of less than 4.82.

`C[C@@H](Nc1ccccc1C(=O)O)c1cc(F)cc2c(=O)n(C)c(-c3cnc(OCC(F)(F)F)c(F)c3)c(F)c12` [Example 569] gave a pEC50 of 4.82 to 5.70.

Regarding `C[C@@H](Nc1ccccc1C(=O)O)c1cc(F)cc2c(=O)n(C)c(C34CC(CC(F)(F)F)(C3)C4)cc12` [Example 570], the pEC50 is less than 4.82.

Compound `C[C@@H](Nc1ccccc1C(=O)O)c1cc(F)cc2c(=O)n(C)c(C34CC(C(F)(F)C(F)(F)F)(C3)C4)cc12` [Example 571] gave a pEC50 of 4.82 to 5.70.

`C[C@@H](Nc1ccccc1C(=O)O)c1cc(F)cc2c(=O)n(C)c(-c3cnc(-c4cnc(C(F)(F)F)nc4)c(F)c3)cc12` [Example 574] gave a pEC50 of 4.82 to 5.70.

Consider `C[C@@H](Nc1ccccc1C(=O)O)c1cc(F)cc2c(=O)n(C)c(-c3cnc(-c4ccnc(C(F)(F)F)n4)c(F)c3)cc12` [Example 575], for which the pEC50 is less than 4.82.

The subject of another assay is phosphorylation of AKT (pAKT) in T47D cells expressing mutant PI3Ka (H1047R). Description: In vitro cell pAKT (Ser473) HTRF, T47D cells. It counts as cell-based. Conditions: Homo sapiens, T47D, 6 h, cellular pAKT, T47D cells, mutant PI3Ka (H1047R), 6 hours; read-out: Avg T-47D IC50. The method, boiled down: (§2)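 pAKT (Ser473) was quantified by HTRF in lysates from cells exposed 6 h at 37 °C to 10-point compound series, with T47D in insulin-supplemented RPMI/10% FBS and SKBR3 in McCoy's 5a/10% FBS. Controls: 0.1% DMSO (high) and 10 uM alpelisib (low). IC50 from sigmoidal curve fitting.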
In general terms: TR-FRET usually uses a lanthanide donor and a delayed reading to cut background.
As to `C[C@@H](Nc1ccccc1C(=O)O)c1cc(F)cc2c(=O)n(C)c(-c3cnc(CF)s3)cc12` [Example 545], the pIC50 is 6.30 to 9.00.

On to `C[C@@H](Nc1ccccc1C(=O)O)c1cc(F)cc2c(=O)n(C)c(-c3ccc(OCC(F)(F)F)nc3)c(F)c12` [Example 547], for which the pIC50 is 6.30 to 9.00.

For `Cc1cc([C@@H](C)Nc2ccccc2C(=O)O)c2cc(N3CCN(c4ccc(C)nn4)CC3)n(C)c(=O)c2c1` [Example 551], the pIC50 was 6.30 to 9.00.

As to `C[C@@H](Nc1ccccc1C(=O)O)c1cc(F)cc2c(=O)n(C)c(Br)cc12` [Example 555], the negative-log IC50 (pIC50) was 5.70 to 6.30.

As to `C[C@@H](Nc1ccccc1C(=O)O)c1cc(F)cc2c(=O)n(C)c(I)cc12` [Example 559], the pIC50 was 5.70 to 6.30.

Take `Cc1ncc(F)cc1-c1ncc(-c2c(F)c3c([C@@H](C)Nc4ccccc4C(=O)O)cc(F)cc3c(=O)n2C)cc1F` [Example 562]: the pIC50 is 6.30 to 9.00.

Regarding `C[C@@H](Nc1ccccc1C(=O)O)c1cc(F)cc2c(=O)n(C)c(-c3cnc(OCC(F)(F)F)s3)cc12` [Example 568], the pIC50 was 6.30 to 9.00.

For `C[C@@H](Nc1ccccc1C(=O)O)c1cc(F)cc2c(=O)n(C)c(-c3cnc(OCC(F)(F)F)c(F)c3)c(F)c12` [Example 569], the pIC50 is 6.30 to 9.00.

As to `C[C@@H](Nc1ccccc1C(=O)O)c1cc(F)cc2c(=O)n(C)c(C34CC(CC(F)(F)F)(C3)C4)cc12` [Example 570], the negative-log IC50 (pIC50) is 6.30 to 9.00.

`C[C@@H](Nc1ccccc1C(=O)O)c1cc(F)cc2c(=O)n(C)c(C34CC(C(F)(F)C(F)(F)F)(C3)C4)cc12` [Example 571]: the pIC50 was 6.30 to 9.00.

With `C[C@@H](Nc1ccccc1C(=O)O)c1cc(F)cc2c(=O)n(C)c(-c3cnc(-c4cnc(C(F)(F)F)nc4)c(F)c3)cc12` [Example 574], the pIC50 was 6.30 to 9.00.

On to `C[C@@H](Nc1ccccc1C(=O)O)c1cc(F)cc2c(=O)n(C)c(-c3cnc(-c4ccnc(C(F)(F)F)n4)c(F)c3)cc12` [Example 575], for which the pIC50 was 5.70 to 6.30.

The subject of a further assay is phosphorylation of AKT (pAKT) in SKBR3 cells express WT PI3Ka. Briefly: In vitro cell pAKT (Ser473) HTRF, SKBR3 cells. Type of assay: cell-based. The conditions noted are these: Homo sapiens, SK-BR-3, 6 h, cellular pAKT. Summed up:
as §2
On to `C[C@@H](Nc1ccccc1C(=O)O)c1cc(F)cc2c(=O)n(C)c(-c3cnc(CF)s3)cc12` [Example 545], for which the pIC50 was less than 4.82.

As to `C[C@@H](Nc1ccccc1C(=O)O)c1cc(F)cc2c(=O)n(C)c(-c3ccc(OCC(F)(F)F)nc3)c(F)c12` [Example 547], the pIC50 is less than 4.82.

The compound `Cc1cc([C@@H](C)Nc2ccccc2C(=O)O)c2cc(N3CCN(c4ccc(C)nn4)CC3)n(C)c(=O)c2c1` [Example 551] had a pIC50 of 4.82 to 5.70.

On to `C[C@@H](Nc1ccccc1C(=O)O)c1cc(F)cc2c(=O)n(C)c(Br)cc12` [Example 555], for which the pIC50 was less than 4.82.

In the case of `C[C@@H](Nc1ccccc1C(=O)O)c1cc(F)cc2c(=O)n(C)c(I)cc12` [Example 559], the pIC50 is less than 4.82.

Take `Cc1ncc(F)cc1-c1ncc(-c2c(F)c3c([C@@H](C)Nc4ccccc4C(=O)O)cc(F)cc3c(=O)n2C)cc1F` [Example 562]: the pIC50 is 4.82 to 5.70.

`C[C@@H](Nc1ccccc1C(=O)O)c1cc(F)cc2c(=O)n(C)c(-c3cnc(OCC(F)(F)F)s3)cc12` [Example 568] gave a pIC50 of less than 4.82.

In turn, `C[C@@H](Nc1ccccc1C(=O)O)c1cc(F)cc2c(=O)n(C)c(-c3cnc(OCC(F)(F)F)c(F)c3)c(F)c12` [Example 569] had a pIC50 of less than 4.82.

In turn, `C[C@@H](Nc1ccccc1C(=O)O)c1cc(F)cc2c(=O)n(C)c(C34CC(CC(F)(F)F)(C3)C4)cc12` [Example 570] showed a negative-log IC50 (pIC50) of less than 4.82.

In the case of `C[C@@H](Nc1ccccc1C(=O)O)c1cc(F)cc2c(=O)n(C)c(C34CC(C(F)(F)C(F)(F)F)(C3)C4)cc12` [Example 571], the pIC50 is less than 4.82.

Consider `C[C@@H](Nc1ccccc1C(=O)O)c1cc(F)cc2c(=O)n(C)c(-c3cnc(-c4cnc(C(F)(F)F)nc4)c(F)c3)cc12` [Example 574], for which the pIC50 was less than 4.82.

On to `C[C@@H](Nc1ccccc1C(=O)O)c1cc(F)cc2c(=O)n(C)c(-c3cnc(-c4ccnc(C(F)(F)F)n4)c(F)c3)cc12` [Example 575], for which the pIC50 is less than 4.82.

(Values after patent publication US20260078103A1, “ISOQUINOLONES AS PI3K INHIBITORS” (OnKure, Inc., priority 2022, published 2026).)
